Results reported in PubChem BioAssay AID1996.
≈ marks a conversion by molar mass, not a printed value.

Conditions: buffer; pH 7.4; 200.0 µM

SMILES	solubility kinetic
Cc1cccc(NC(=O)Nc2ccc3c(c2)CCC3)c1	< 0.0003 mg/mL
Cc1cc(Br)c(NC(=O)COC(=O)C2CCCCC2)c(Br)c1	0.0101 mg/mL (≈ 23.3 µM)
COc1ccc(NC2CCCN(Cc3cccc4cnccc34)C2)cc1 (centres undefined)	0.0494 mg/mL (≈ 142 µM)
CN1C(=O)c2cccc3c(S(=O)(=O)Nc4ccccc4F)ccc1c23	0.0096 mg/mL (≈ 26.9 µM)
CC(=O)Nc1ccc(N2Cc3ccccc3C2)cc1	0.0187 mg/mL (≈ 74.1 µM)
C=CCn1ccc2c([N+](=O)[O-])cccc2c1=O	0.0302 mg/mL (≈ 131 µM)
Cc1cc(C)nc(NC(=S)NC(=O)c2ccccc2F)n1	0.0081 mg/mL (≈ 26.6 µM)
CN(C)/C=C/C(=O)c1ccc(Br)s1	> 0.039 mg/mL
CC(=O)c1ccc(NC(=S)N2CCCC(C(F)(F)F)C2)cc1 (centres undefined)	0.0476 mg/mL (≈ 144 µM)
Cc1ccc2c(CC(=O)NC3CCS(=O)(=O)C3)coc2c1C (centres undefined)	> 0.0482 mg/mL
COc1ccc(C2NC(c3ccc(OC)cc3)C(C)C(=O)C2C)cc1 (centres undefined)	0.0122 mg/mL (≈ 35.9 µM)
CO/N=C(\c1ccccc1)c1cccnc1	0.0232 mg/mL (≈ 109 µM)
COc1ccccc1CNC(=O)C12CC3CC(CC(C3)C1)C2	0.0023 mg/mL (≈ 7.68 µM)
CCOC(=O)C1CCCN(C(=O)CNC(=O)c2ccc(Br)o2)C1 (centres undefined)	> 0.0581 mg/mL
Cc1ccc(-c2nc(-c3ccncc3)no2)cc1C	0.0007 mg/mL (≈ 2.79 µM)
Cc1ccsc1CNC12CC3CC(CC(C3)C1)C2.Cl	0.0381 mg/mL
CC(C)c1onc(C(=O)N2CCN(c3ccccc3)CC2)c1[N+](=O)[O-]	0.0019 mg/mL (≈ 5.52 µM)
Cc1ccc(SCCCCN2CCOCC2)cc1.Cl	> 0.0453 mg/mL
CC1CCCCC12NC(=O)N(CC(=O)NCc1ccccc1Cl)C2=O (centres undefined)	> 0.0546 mg/mL
COc1cccc(N2CCN(C(=S)Nc3ccc(C)cc3C)CC2)c1	0.0006 mg/mL (≈ 1.69 µM)

SMILES	solubility kinetic
O=C(CCc1nc(-c2ccc(F)cc2)no1)NCc1ccccc1CN1CCOCC1	> 0.0637 mg/mL
O=[N+]([O-])c1ccc(N2CCN(c3ccccc3)CC2)cc1	< 0.0002 mg/mL
CC1CN=C(NCCc2ccccc2)S1 (centres undefined)	> 0.033 mg/mL
Cc1ccc(/C=C/S(=O)(=O)NCCC(=O)NCc2ccccc2F)cc1	0.009 mg/mL (≈ 23.9 µM)
Cc1cc(Cl)ccc1NC(=O)C1CCN(S(C)(=O)=O)CC1	0.0108 mg/mL (≈ 32.6 µM)
CCNC(=S)Nc1cccc(S(=O)(=O)NC2=NCCC2)c1	0.0379 mg/mL (≈ 116 µM)
Cc1ccc2nc(-c3ccccc3)c(CC(=O)O)c(C(=O)O)c2c1	> 0.0482 mg/mL
Cc1ccc(-c2cnc3n2CCCCC3)cc1	> 0.0339 mg/mL
O=C(COC(=O)C1CC1)NCc1ccc(Cl)cc1Cl	0.0419 mg/mL (≈ 139 µM)
CNC(=O)COC(=O)/C=C/c1cccc(F)c1	> 0.0356 mg/mL
Cc1ccc(CNC(=O)CN(C)S(=O)(=O)c2ccc(F)cc2)cc1	0.0018 mg/mL (≈ 5.14 µM)
O=C(O)CCCNC(=O)Cc1ccccc1	> 0.0332 mg/mL
O=C(Nc1ccccc1Br)c1ccc2nccnc2c1	> 0.0492 mg/mL
COc1ccc(N2C(=O)CSC2c2ccccc2[N+](=O)[O-])cc1 (centres undefined)	0.0477 mg/mL (≈ 144 µM)
Cc1ccc(C)c(NC(=O)Nc2ccc3c(c2)OCO3)c1	0.001 mg/mL (≈ 3.52 µM)
O=S1(=O)CC2SC(=S)N(Cc3ccccc3)C2C1 (centres undefined)	0.0018 mg/mL (≈ 6.01 µM)
Cn1c(=O)c2c(nc(NC3CCCC3)n2C)n(C)c1=O	> 0.0416 mg/mL
COCc1c(C(=O)Nc2cccc(S(=O)(=O)N3CCCCC3)c2)oc2ccccc12	0.0031 mg/mL (≈ 7.23 µM)
CC(=O)N=c1sc(S(N)(=O)=O)nn1C	> 0.0354 mg/mL
CNC(=O)c1ccccc1S(=O)c1ccccc1COC(C)=O (centres undefined)	> 0.0497 mg/mL

SMILES	solubility kinetic
Cc1oc(-c2ccoc2)nc1CN(CC1CCC(=O)N1)C(C)C (centres undefined)	0.0388 mg/mL (≈ 122 µM)
Cc1cccc(NC(=O)c2cc(Cl)nc3ccccc23)n1	0.0199 mg/mL (≈ 66.8 µM)
COc1ccc2oc(=O)c(C(=O)NCc3ccco3)cc2c1	0.0048 mg/mL (≈ 16 µM)
COc1ccc2cc(C(=O)NCCc3ccccc3)[nH]c2c1	< 0.0003 mg/mL
Cc1ccc(S(=O)(=O)N2CCOCC2)cc1NC(=O)CN1C(=O)NC(C)(c2ccc(Cl)cc2Cl)C1=O (centres undefined)	0.0461 mg/mL (≈ 83 µM)
O=c1c2ccc(Cl)cc2[nH]c(=S)n1-c1cccnc1	0.0108 mg/mL (≈ 37.3 µM)
Cc1cc(Cl)ccc1-n1c(-c2cccnc2)n[nH]c1=S	> 0.0454 mg/mL
N#Cc1ccc(CN2C=NS(=O)(=O)c3ccccc32)cc1	0.0437 mg/mL (≈ 147 µM)
O=C(COC(=O)/C=C/c1ccc2c(c1)OCO2)NCc1ccccc1	0.0015 mg/mL (≈ 4.42 µM)
CCOC(=O)c1ccc(N)cc1	> 0.0248 mg/mL
O=C(CNC(=O)c1ccc(F)cc1)c1ccccc1	> 0.0386 mg/mL
CN(C)c1cc[n+](CC(=O)c2cccs2)cc1.[Cl-]	0.0417 mg/mL
Cc1ccc(C(=O)OCC(=O)Nc2cc(C(C)(C)C)no2)c(C)c1	0.0031 mg/mL (≈ 9.38 µM)
CN1C(=O)c2ccccc2C(C(=O)O)C1c1cccc([N+](=O)[O-])c1 (centres undefined)	> 0.0489 mg/mL
c1ccn2cc(-c3ccc4c(c3)OCCO4)nc2c1	> 0.0378 mg/mL
Cc1ccc(S(=O)(=O)N(CCO)Cc2ccccc2)cc1	> 0.0458 mg/mL
O=C(NC(=S)Nc1ccccn1)c1cccc([N+](=O)[O-])c1	0.0062 mg/mL (≈ 20.5 µM)
NS(=O)(=O)c1ccc(CCNC(=O)COC(=O)/C=C/c2cc(Br)ccc2F)cc1	0.0302 mg/mL (≈ 62.2 µM)
COc1ccc(O)c(/C=N/N2CCOCC2)c1	> 0.0354 mg/mL
